Laboratory results from US20240024273A1, “TOPICAL ADMINISTRATION OF 2-(DIETHYLAMINO)ETHYL 2-(4-ISOBUTYLPHENYL)PROPRIONATE FOR TREATMENT OF DISEASES” (TECHFIELDS PHARMA CO., LTD., priority 2020, published 2024).
Several values for one entry are separate records, joined by “and”; a condition that tells them apart may be missing. Equal values may be shown once.

How the values were obtained:
[1] = system: Osteoarthritis; assay: Phase 2 study: effect of treatment on sign and symptoms of osteoarthritis at 12 weeks (re-analysis, all patients taken as active); format: in vivo, human; details: for difference from placebo, sign and symptoms of OA: placebo effect assumed −6.1; for Mean ± SEM WOMAC Osteoarthritis Index Composite Score Change from Baselines / Mean ± SEM WOMAC Osteoarthritis Index Composite Score Change from Baselines, adjusted by […] of the testing drug amount: scale 0 to 100
Description: (William G. Bensen, Justus J. Fiechtner, James 1. McMillen, et. al. Treatment of Osteoarthritis with Celecoxib. Mayo Clin Proc, November 1999. Vol 74, 1095-1105.)

[2] = system: healthy male and female volunteers; assay: Phase 1 clinical study: safety (adverse events, laboratory, vital signs, ECG); format: in vivo, human; details: for Subjects with at least one TEAE: N = 8
Description: Safety assessments included monitoring of adverse events (AEs), vital signs (blood pressure, pulse rate, respiratory rate and oral temperature), clinical laboratory findings, resting 12-lead electrocardiogram (ECG) results, skin irritation assessments and physical examination findings.
Safety endpoints consist of all AEs, clinical laboratory test results, ECG, physical examination and vital sign assessments and skin irritation assessments.
Safety summaries are provided for all subjects in the safety population. Data from subjects in each cohort who received placebo treatment were pooled. AE data, clinical laboratory test results, ECG, skin irritation and vital signs data are presented descriptively using summary tables and listings. Change from baseline in vital signs, ECG and clinical laboratory results are presented descriptively using summary tables and listings. Physical examination findings are listed by subject.
Samples for clinical laboratory safety tests (chemistry, hematology, urinalysis) were obtained at the screening visit, Day −1, Day 4, Day 13 and prior to discharge from the study on Day 17 or at early termination. Any clinical laboratory findings considered to be clinically significant were recorded as AEs.
Systolic and diastolic blood pressure (mmHg) and pulse rate (beats per minute), respiratory rate (breaths per minute) and oral temperature (° C.) were measured after at least 5 minutes at rest in the seated position at the screening visit, at admission on Day −1, Day 5 and Day 13, and prior to and 1 hour following each dose administration.
A physical examination was performed at the screening visit and on Day 13, or at early termination, and included assessment of the following body systems: general appearance, dermatological, head, eyes, ears, nose and throat, neck, lymph nodes, lungs, heart, abdomen, neurological and musculoskeletal.
A resting 12-lead ECG was recorded after at least 5 minutes of rest at the screening visit and on Day 13, or at early termination. The ECG parameters recorded include ventricular rate (bpm), PR interval (msec), QRS duration (msec), QT interval (msec), and QTc interval (msec). QTc interval was calculated at the clinic using a formula internal to the ECG equipment (Mortara).

[3] = N = 8 each, dose by column: c1 17.5, c2 35, c3 70, c4 140, c5 280 mg topical, c6 70 mg spray

CCN(CC)CCOC(=O)C(C)c1ccc(CC(C)C)cc1 (centres unmarked) [2-(diethylamino)ethyl 2-(4-isobutylphenyl)propionate]
difference from placebo, sign and symptoms of OA ([1]; 8.75 mg BID, Week 12): −13.4 | adjusted best result relative to Celecoxib (100 mg, BID) ([1]; 17.5 mg BID): 6 times | best result relative to Celecoxib (100 mg, BID) ([1]; 17.5 mg BID): 3 times | difference from placebo, adjusted by […] of the testing drug ([1]; 17.5 mg BID, Week 12): −43.5 | difference from placebo, sign and symptoms of OA ([1]; 17.5 mg BID, Week 12): −22.8 | difference from placebo, sign and symptoms of OA ([1]; 35 mg BID, Week 12): −16.9 | Mean ± SEM WOMAC Osteoarthritis Index Composite Score Change from Baselines ([1]; 2 sprays/knee (8.75 mg, BID) transdermally, Follow-up (Week13)): −18.4 ± 3.20 | Mean ± SEM WOMAC Osteoarthritis Index Composite Score Change from Baselines ([1]; 2 sprays/knee (8.75 mg, BID) transdermally, Week 2): −11.1 ± 2.50 | Mean ± SEM WOMAC Osteoarthritis Index Composite Score Change from Baselines ([1]; 2 sprays/knee (8.75 mg, BID) transdermally, Week 4): −18.0 ± 2.50 | Mean ± SEM WOMAC Osteoarthritis Index Composite Score Change from Baselines ([1]; 2 sprays/knee (8.75 mg, BID) transdermally, Week 8): −18.1 ± 2.92 | Mean ± SEM WOMAC Osteoarthritis Index Composite Score Change from Baselines ([1]; 2 sprays/knee (8.75 mg, BID) transdermally, Week 12): −19.5 ± 3.18 | Mean ± SEM WOMAC Osteoarthritis Index Composite Score Change from Baselines, adjusted by […] of the testing drug amount ([1]; 2 sprays/knee (8.75 mg, BID), Follow-up (Week 13)): −31.6 ± 5.49 | Mean ± SEM WOMAC Osteoarthritis Index Composite Score Change from Baselines, adjusted by […] of the testing drug amount ([1]; 2 sprays/knee (8.75 mg, BID), Week 2): −19.0 ± 4.29 | Mean ± SEM WOMAC Osteoarthritis Index Composite Score Change from Baselines, adjusted by […] of the testing drug amount ([1]; 2 sprays/knee (8.75 mg, BID), Week 4): −30.9 ± 4.29 | Mean ± SEM WOMAC Osteoarthritis Index Composite Score Change from Baselines, adjusted by […] of the testing drug amount ([1]; 2 sprays/knee (8.75 mg, BID), Week 8): −31.0 ± 5.01 | Mean ± SEM WOMAC Osteoarthritis Index Composite Score Change from Baselines, adjusted by […] of the testing drug amount ([1]; 2 sprays/knee (8.75 mg, BID), Week 12): −33.4 ± 5.45 | Mean ± SEM WOMAC Osteoarthritis Index Composite Score Change from Baselines ([1]; 4 sprays/knee (17.5 mg, BID) transdermally, Follow-up (Week13)): −23.4 ± 3.52 | Mean ± SEM WOMAC Osteoarthritis Index Composite Score Change from Baselines ([1]; 4 sprays/knee (17.5 mg, BID) transdermally, Week 2): −15.1 ± 2.89 | Mean ± SEM WOMAC Osteoarthritis Index Composite Score Change from Baselines ([1]; 4 sprays/knee (17.5 mg, BID) transdermally, Week 4): −21.3 ± 3.32 | Mean ± SEM WOMAC Osteoarthritis Index Composite Score Change from Baselines ([1]; 4 sprays/knee (17.5 mg, BID) transdermally, Week 8): −24.8 ± 3.26 | Mean ± SEM WOMAC Osteoarthritis Index Composite Score Change from Baselines ([1]; 4 sprays/knee (17.5 mg, BID) transdermally, Week 12): −28.9 ± 3.38 | Mean ± SEM WOMAC Osteoarthritis Index Composite Score Change from Baselines, adjusted by […] of the testing drug amount ([1]; 4 sprays/knee (17.5 mg, BID), Follow-up (Week 13)): −40.1 ± 6.04 | Mean ± SEM WOMAC Osteoarthritis Index Composite Score Change from Baselines, adjusted by […] of the testing drug amount ([1]; 4 sprays/knee (17.5 mg, BID), Week 2): −25.9 ± 4.96 | Mean ± SEM WOMAC Osteoarthritis Index Composite Score Change from Baselines, adjusted by […] of the testing drug amount ([1]; 4 sprays/knee (17.5 mg, BID), Week 4): −36.5 ± 5.69 | Mean ± SEM WOMAC Osteoarthritis Index Composite Score Change from Baselines, adjusted by […] of the testing drug amount ([1]; 4 sprays/knee (17.5 mg, BID), Week 8): −42.5 ± 5.59 | Mean ± SEM WOMAC Osteoarthritis Index Composite Score Change from Baselines, adjusted by […] of the testing drug amount ([1]; 4 sprays/knee (17.5 mg, BID), Week 12): −49.6 ± 5.80 | Mean ± SEM WOMAC Osteoarthritis Index Composite Score Change from Baselines ([1]; 8 sprays/knee (35 mg, BID) transdermally, Follow-up (Week13)): −22.1 ± 3.23 | Mean ± SEM WOMAC Osteoarthritis Index Composite Score Change from Baselines ([1]; 8 sprays/knee (35 mg, BID) transdermally, Week 2): −11.7 ± 2.88 | Mean ± SEM WOMAC Osteoarthritis Index Composite Score Change from Baselines ([1]; 8 sprays/knee (35 mg, BID) transdermally, Week 4): −17.0 ± 2.96 | Mean ± SEM WOMAC Osteoarthritis Index Composite Score Change from Baselines ([1]; 8 sprays/knee (35 mg, BID) transdermally, Week 8): −21.7 ± 3.28 | Mean ± SEM WOMAC Osteoarthritis Index Composite Score Change from Baselines ([1]; 8 sprays/knee (35 mg, BID) transdermally, Week 12): −23.0 ± 3.27 | Mean ± SEM WOMAC Osteoarthritis Index Composite Score Change from Baselines, adjusted by […] of the testing drug amount ([1]; 8 sprays/knee (35 mg, BID), Follow-up (Week 13)): −37.9 ± 5.54 | Mean ± SEM WOMAC Osteoarthritis Index Composite Score Change from Baselines, adjusted by […] of the testing drug amount ([1]; 8 sprays/knee (35 mg, BID), Week 2): −20.1 ± 4.94 | Mean ± SEM WOMAC Osteoarthritis Index Composite Score Change from Baselines, adjusted by […] of the testing drug amount ([1]; 8 sprays/knee (35 mg, BID), Week 4): −29.2 ± 5.08 | Mean ± SEM WOMAC Osteoarthritis Index Composite Score Change from Baselines, adjusted by […] of the testing drug amount ([1]; 8 sprays/knee (35 mg, BID), Week 8): −37.2 ± 5.63 | Mean ± SEM WOMAC Osteoarthritis Index Composite Score Change from Baselines, adjusted by […] of the testing drug amount ([1]; 8 sprays/knee (35 mg, BID), Week 12): −39.5 ± 5.61 | Subjects with at least one TEAE ([2]; 17.5 mg topical): 1 (12.5%) n (%) and 1 (12.5) n (%) | Headache, subjects ([2]; 35 mg topical): 2 (25.0%) | Subjects with at least one TEAE ([2]; 35 mg topical): 3 (37.5%) n (%) and 3 (37.5) n (%) | Subjects with at least one TEAE ([2]; 70 mg spray): 2 (25.0%) n (%) and 2 (25.0) n (%) | Subjects with at least one TEAE ([2]; 70 mg topical): 1 (12.5%) n (%) and 1 (12.5) n (%) | Headache, subjects ([2]; 140 mg topical): 1 (12.5%) | Subjects with at least one TEAE ([2]; 140 mg topical): 1 (12.5%) n (%) and 1 (12.5) n (%) | Subjects with at least one TEAE ([2]; 280 mg topical): 1 (12.5%) n (%) and 1 (12.5) n (%) | safety and tolerability ([2]; 17.5-280 mg topical and 70 mg spray, single and multiple doses): safe and well-tolerated | Subjects who discontinued due to an AE [2, 3]: 0 | Subjects with SAEs [2, 3]: 0 | TEAE: Dizziness [2, 3]: 0 n (%) | TEAE: Vomiting [2, 3]: 0 n (%) | intensity of AEs ([2]; all dose groups): mild or moderate in intensity | aspartate aminotransferase (ast) increased, subjects ([2]; each of 70 mg topical and 70 mg spray): 1 (12.5%) | alanine aminotransferase (ALT) increased, subjects ([2]; each of 70 mg, 280 mg topical and 70 mg spray): 1 (12.5%) | ECG parameters ([2]; human, in vivo): no clinically significant ECG parameter values | deaths ([2]; human, in vivo): No subjects died | laboratory findings vs dose ([2]; human, in vivo): no apparent trends or dose relationship | vital signs ([2]; human, in vivo): no clinically significant vital sign values
